Read-outs that look alike come from different tables or passages of the source.
Columns and labels:
Assay type in all cases: cell-based
[1] = in vitro; conditions: mouse
Description: (§1) In order to assess toxicity, osteoblast-like cells MC3T3-E1 (source: ATCC CRL-2596) were used. At first, the adherent cells were separated from each other and from the bottom of the petri dishes using pronase, and were then mixed with freshly prepared medium consisting of commercially available Minimal Essential Medium Eagle's alpha Modification (αMEM), supplemented with additional glucose from originally 1 g/l to a glucose concentration of 4.5 g/l as well as with 10% FCS (fetal calf serum), 30 μg/ml gentamycin (broad-spectrum antibiotic), L-glutamine (400 mg/l), and ascorbic acid (50 mg/l), so as to obtain a cell concentration of 40,000 cells/ml. 1 ml of this cell suspension was precharged into each well (diameter 1.9 cm) of multi-well plates.
(§2) The multi-well containing the cells was incubated for 5 days at 37° C. under a humid atmosphere with 5% CO2 together with increasing amounts of the monomers used in the examples and comparative examples. Then the cells were washed with phosphate-buffered physiological saline and frozen before the measurements, in order to break up the cells. After thawing of the cells, the amount of deoxyribonucleic acid, which is proportional to the cell count, was determined by staining with a fluorescent dye, measuring the fluorescence at 460 nm (after excitation at 360 nm) and comparing the value to a calibration curve previously prepared.

[2] = tested on: human umbilical vein endothelial cells (HUVEC); assay: Toxicity test of monomers with endothelial cells (EZ4U)
Description: For an additional toxicity test of monomers of formula (I), human umbilical vein endothelial cells (HUVEC) were used. After trypsinating the confluent primary cultures, the cells were suspended in commercial Medium 199 with 20% fetal calf serum, put into 96-well cell culture plates in a concentration of 40,000 cells/cm^2, and cultivated until they were confluent again (37° C., 5% CO2). The cell supernatants were then lifted, and the endothelial cells were incubated for 24 hours with increasing monomer concentrations (0.1 nM to 1 mM in Medium 199 with 10% fetal calf serum). The influence on cell proliferation was examined by means of a non-radioactive cell proliferation and cytotoxicity test (EZ4U, Biomedica, Vienna). This test is based on the conversion by living cells of colorless tetrazolium salts into intensively colored formazan derivatives. The photochemically measured staining is proportional to the number of living cells in the sample. Thus, the influence of the test substances on the proliferation of the cells may be photometrically determined. Endothelial cells which had been cultivated without the addition of monomer solutions were used as a growth control.

[3] = tested on: osteoblast-like cells MC3T3-E1; assay: in vitro
Description: as §1, §2

[4] = MC3T3-E1, 5 days incubation, DNA fluorescence, values are LC50 × 10^4
[5] = HUVEC, 24 hours, concentration of half-maximum proliferation inhibition

Compound | CC50 [1, 4] [mM] | CC50 at 5 days [1] [mM] | further results
C=COC(=O)N(C)CCN(C)C(=O)OC=C [N,N′-dimethyl ethylenediamine bis(vinyl carbamate)] | > 10 | – | –
C=COC(=O)CCCCCCCCC(=O)OC=C [SEVE, sebacic acid divinyl ester] | – | > 10 | Cmax1/2 [2, 5]: >1000 µM
C=COP(=O)(OC=C)OCC [DVEP, divinyl ethyl phosphate] | > 10 | – | –
C=COC(=O)CCCCC(=O)OC=C [AVE, adipic acid divinyl ester] | – | – | Cmax1/2 [2, 5]: >1000 µM
polyethylene glycol diacrylate, MG 800 [PEG-DA, reference compound] | – | – | CC50 [3]: 0.11 mM; Cmax1/2 ([2]; human): 500 µM
C=COC(=O)OCCC#N [CEVC, 2-cyanoethyl vinyl carbonate] | – | > 10 | –
C=COC(=O)CCCCCCC(=O)OC=C [KVE, octanedioic acid divinyl ester] | – | > 10 | Cmax1/2 [2, 5]: >1000 µM
C=COC(=O)COCCOCCOCC(=O)OC=C [TUVE, ω,ω′-3,6,9-trioxaundecanedioic acid divinyl ester] | – | > 10 | –
C=COC(=O)OCC(COC(=O)OC=C)OC(=O)OC=C [GTVC, glycerine tris(vinyl carbonate)] | – | > 10 | –
hydrated ricinus oil tris(vinyl carbonate) [HRiTVC] | – | – | CC50 [3]: > 10 mM
C=COP(=O)(OC=C)OC=C [TVP, trivinyl phosphate] | > 10 | – | –
C=COC(=O)[C@H](Cc1ccccc1)NC(C)=O [PAVE, N-acetyl phenylalanine vinyl ester] | – | > 10 | Cmax1/2 [2, 5]: >1000 µM
C=CC(=O)OCC(CC)(COC(=O)C=C)COC(=O)C=C [TTA, trimethylolpropane triacrylate, reference compound] | < 0.01 | – | Cmax1/2 ([2]; human, 24 h): 10 µM
C=COC(=O)OCCCCCCOC(=O)OC=C [HDDVC, 1,6-hexanediol bis(vinyl carbonate)] | – | > 10 | –
C=COC(=O)OCCOCCOC(=O)OC=C [DEGDVC, diethylene glycol bis(vinyl carbonate)] | – | > 10 | –
ethoxylated (20) TTA, MG 1200 [ETA, reference compound] | – | – | CC50 [3]: 0.07 mM; Cmax1/2 ([2]; human): 100 µM
C=COC(=O)ON(C)C(=O)OC=C [MHADVC, N,O-Bis(vinyloxycarbonyl)-N-methyl hydroxylamine] | > 10 | – | –

Compound | CC50 [1, 4] [mM] | CC50 at 5 days [1] [mM] | further results
C=COC(=O)CCCCCCCCC [DVE, decanoic acid vinyl ester] | – | > 10 | Cmax1/2 [2, 5]: >1000 µM
C=COP(=O)(OCC)OCC [DEVP, diethyl vinyl phosphate] | > 10 | – | –
C=COC(=O)N(OC)C(=O)C=C [AMVCA, N-acryloyl N-methoxy vinyl carbamate] | < 0.01 | – | toxicity for osteoblasts compared with the acrylates of the comparative examples ([3]; statement on Table 2): similarly toxic as the majority of the comparative examples
C=COC(=O)OCCCCOC(=O)OC=C [BDDVC, 1,4-butanediol bis(vinyl carbonate)] | – | – | CC50 at 5 days ([1]; osteoblast-like MC3T3-E1 cells (ATCC CRL-2596), MC3T3-E1, 5 days incubation, DNA fluorescence, values are LC50 × 10^4, read-out: In vitro LC50 × 10^4): > 10 mM
diethylene glycol bis[O—(O′- vinylmaleinoy1)-polylactate] [DVMPL] | – | – | Cmax1/2 [2, 5]: >1000 µM
C=COC(=O)CCCCC [HVE, hexanoic acid vinyl ester] | – | > 10 | Cmax1/2 [2, 5]: >1000 µM
C=COC(=O)NCCOP(=O)(OCC)OCCNC(=O)OC=C [EBVCAEP, ethyl bis[2-(vinyloxycarbonylamino)ethyl]phosphate] | > 10 | – | –
C=COC(=O)NCCCOCCOCCCNC(=O)OC=C [JAVM, 3,3′-ethylenedioxy bis(propylamine)divinyl carbamate] | > 10 | – | –
C=C(C)C(=O)OCCCCOC(=O)C(=C)C [BDMA, 1,4-butanediol dimethacrylate, reference compound] | < 0.01 | – | Cmax1/2 [2, 5]: 40 µM
C=COC(=O)OCCOC(=O)OC=C [EGDVC, ethylene glycol bis(vinyl carbonate)] | – | > 10 | –
C=COC(=O)NOC [MVCA, N-methoxy vinyl carbamate] | > 10 | – | –
polyethylene glycol(400) bis(vinyl carbonate) [PEGDVC] | – | – | CC50 [3]: > 10 mM
C=CC(=O)OCCCCCCOC(=O)C=C [HDDA, 1,6-hexanediol diacrylate, reference compound] | < 0.01 | – | Cmax1/2 [2, 5]: 20 µM
C=COC(=O)CC(C)C(C)C(CC(=O)OC=C)C(C)CC(=O)OC=C (centres unmarked) [TFVE, trimeric fatty acid trivinyl ester] | – | > 10 | –
C=COC(=O)OCC [EVC, ethylvinyl carbonate] | – | > 10 | –
C=COC(=O)N(C)CC(=O)OC [SMEVCA, sarcosine methyl ester vinyl carbamate] | > 10 | – | –

— patent publication US8999323B2, “Composition that can be cured by polymerisation for the production of biodegradable, biocompatible, cross-linkable polymers on the basis of polyvinyl alcohol” (Technische Universität Wien, priority 2007, dated 2015)
